{"source": "ChEMBL document CHEMBL3045030", "about": "“Insect antifeedants from tropical plants II: structure of zumsin” (2002)", "format_in_all_cases": "functional", "key": {"Pectinophora gossypiella [1]": {"system": "Pectinophora gossypiella", "test": "Antifeedant activity against second-instar larvae of Pectinophora gossypiella (pink bollworm) in cotton glandless leaves assessed as 50% protection of host plant substrate after 48 hr"}, "Spodoptera frugiperda [2]": {"system": "Spodoptera frugiperda", "test": "Antifeedant activity against second-instar larvae of Spodoptera frugiperda (fall armyworm) in cotton glandless leaves assessed as 50% protection of host plant substrate after 48 hr"}, "Spodoptera frugiperda [3]": {"system": "Spodoptera frugiperda", "test": "Antifeedant activity against second-instar larvae of Spodoptera frugiperda (fall armyworm) in cotton glandless leaves assessed as 95% protection of host plant substrate after 48 hr"}, "Pectinophora gossypiella [4]": {"system": "Pectinophora gossypiella", "test": "Antifeedant activity against second-instar larvae of Pectinophora gossypiella (pink bollworm) in cotton glandless leaves assessed as 95% protection of host plant substrate after 48 hr"}}}
{"compound": "CC(=O)O[C@@H]1[C@@H]2[C@@]34CC(=O)C[C@@H]3OC(C)(C)[C@@H]4CC(=O)[C@@]2(C)[C@@]23O[C@@H]2C[C@H](c2ccoc2)[C@]3(C)[C@H]1OC(C)=O", "note": "[ZUMSIN]", "values": [{"measurement": "PC50", "setting": "Pectinophora gossypiella [1]", "result": 1, "unit": "microg/cm2"}, {"measurement": "PC50", "setting": "Spodoptera frugiperda [2]", "result": 2, "unit": "microg/cm2"}, {"measurement": "PC95", "setting": "Spodoptera frugiperda [3]", "result": 16, "unit": "microg/cm2"}, {"measurement": "PC95", "setting": "Pectinophora gossypiella [4]", "result": 8, "unit": "microg/cm2"}]}
